In patent US20260076902A1, “LIQUID, STORAGE STABLE, DIRECTLY INJECTABLE, PANTOPRAZOLE FORMULATIONS, THEIR USES AND MANUFACTURING” (Etico Lifesciences Private Limited, priority 2024, published 2026):

Test: Dilution with 0.9% sodium chloride solution, precipitation
Format: physicochemical
Conditions: alpha tocopherol tested as stabilizer

behaviour upon dilution with 0.9% sodium chloride solution: precipitation was formed
SMILES: Cc1c(C)c2c(c(C)c1O)CC[C@@](C)(CCC[C@H](C)CCC[C@H](C)CCCC(C)C)O2 [Alpha tocopherol]
